Data as given in patent US20170050957A1, “4-AMINO-6-(HETEROCYCLIC)PICOLINATES AND 6-AMINO-2-(HETEROCYCLIC)PYRIMIDINE-4-CARBOXYLATES AND THEIR USE AS HERBICIDES” (Dow AgroSciences LLC, priority 2013, published 2017).
Like-named read-outs stand apart in the source and are kept apart here.

Experiments:
[1] = test system: Key Broadleaf Weed and Crop Species; experiment: Post-emergent Test II herbicidal activity (Table 15); type: in vivo; conditions: post-emergence, 336 h, 14 d; for pest or weed control at 35 g/ha: 35 g ai/ha; for pest or weed control at 70 g/ha: 70 g ai/ha; for pest or weed control at 140 g/ha: 140 g ai/ha
Method in brief: (§1)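 Visual injury rating (0 = none, 100% = complete kill) made 14 d after treatment, relative to untreated plants. Compounds in an acetone/DMSO/aqueous crop-oil/surfactant spray, at top rate and serial 1/2×-1/16× rates, were applied at 187 L/ha overhead to first-second true leaf plants raised 7-21 d in greenhouse.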

[2] = test system: Key Grass and Sedge Weeds as well as Grass Crops; experiment: Post-emergent Test II herbicidal activity (Table 16); type: in vivo; conditions: post-emergence, 336 h, 14 d; for pest or weed control at 35 g/ha: 35 g ai/ha; for pest or weed control at 70 g/ha: 70 g ai/ha; for pest or weed control at 140 g/ha: 140 g ai/ha
Method in brief: as §1

[3] = Abutilon theophrasti, velvetleaf (Abutilon theophrasti), read-out: Visual Growth Reduction (%) 14 Days After Application, ABUTH
[4] = Amaranthus retroflexus, redroot pigweed (Amaranthus retroflexus), read-out: Visual Growth Reduction (%) 14 Days After Application, AMARE
[5] = Brassica napus, oilseed rape, canola (Brassica napus), read-out: Visual Growth Reduction (%) 14 Days After Application, BRSNN
[6] = Chenopodium album, lambsquarters (Chenopodium album), read-out: Visual Growth Reduction (%) 14 Days After Application, CHEAL
[7] = Euphorbia heterophylla, wild poinsettia (Euphorbia heterophylla), read-out: Visual Growth Reduction (%) 14 Days After Application, EPHHL
[8] = Helianthus annuus, sunflower (Helianthus annuus), read-out: Visual Growth Reduction (%) 14 Days After Application, HELAN
[9] = Cyperus esculentus, yellow nutsedge (Cyperus esculentus), read-out: Visual Growth Reduction (%) 14 Days After Application, CYPES
[10] = Echinochloa crus-galli, barnyardgrass (Echinochloa crus-galli), read-out: Visual Growth Reduction (%) 14 Days After Application, ECHCG
[11] = Oryza sativa, rice (Oryza sativa), read-out: Visual Growth Reduction (%) 14 Days After Application, ORYSA
[12] = Setaria faberi, giant foxtail (Setaria faberi), read-out: Visual Growth Reduction (%) 14 Days After Application, SETFA
[13] = Triticum aestivum, wheat, spring (Triticum aestivum), read-out: Visual Growth Reduction (%) 14 Days After Application, TRZAS
[14] = Zea mays, maize, corn (Zea mays), read-out: Visual Growth Reduction (%) 14 Days After Application, ZEAMX

Q: Which pest or weed control at 35 g/ha [1, 3] does the source give for COC(=O)c1nc(-c2cc3occc3cc2F)nc(N)c1OC [Compound 2.14] here?
A: 0 to 29%

Q: And the pest or weed control at 70 g/ha [1, 3]?
A: 0 to 29%

Q: And the pest or weed control at 140 g/ha [1, 3]?
A: 0 to 29%

Q: What about the pest or weed control at 35 g/ha [1, 4] of the same compound?
A: 95 to 100%

Q: What about the pest or weed control at 70 g/ha [1, 4] of the same compound?
A: 95 to 100%

Q: What about the pest or weed control at 140 g/ha [1, 4] of the same compound?
A: 95 to 100%

Q: What about the pest or weed control at 35 g/ha [1, 5] of the same compound?
A: 95 to 100%

Q: And the pest or weed control at 70 g/ha [1, 5]?
A: 95 to 100%

Q: And the pest or weed control at 140 g/ha [1, 5]?
A: 95 to 100%

Q: And the pest or weed control at 35 g/ha [1, 6]?
A: 85 to 94%

Q: And the pest or weed control at 70 g/ha [1, 6]?
A: 95 to 100%

Q: What about the pest or weed control at 140 g/ha [1, 6] of the same compound?
A: 95 to 100%

Q: What about the pest or weed control at 35 g/ha [1, 7] of the same compound?
A: 85 to 94%

Q: What about the pest or weed control at 70 g/ha [1, 7] of the same compound?
A: 95 to 100%

Q: What about the pest or weed control at 140 g/ha [1, 7] of the same compound?
A: 95 to 100%

Q: What about the pest or weed control at 35 g/ha [1, 8] of the same compound?
A: 60 to 74%

Q: What about the pest or weed control at 70 g/ha [1, 8] of the same compound?
A: 85 to 94%

Q: And the pest or weed control at 140 g/ha [1, 8]?
A: 95 to 100%

Q: And the pest or weed control at 35 g/ha [2, 9]?
A: 0 to 29%

Q: And the pest or weed control at 70 g/ha [2, 9]?
A: 0 to 29%

Q: And the pest or weed control at 140 g/ha [2, 9]?
A: 0 to 29%

Q: What about the pest or weed control at 35 g/ha [2, 10] of the same compound?
A: 0 to 29%

Q: And the pest or weed control at 70 g/ha [2, 10]?
A: 0 to 29%

Q: What about the pest or weed control at 140 g/ha [2, 10] of the same compound?
A: 75 to 84%

Q: And the pest or weed control at 35 g/ha [2, 11]?
A: 0 to 29%

Q: What about the pest or weed control at 70 g/ha [2, 11] of the same compound?
A: 0 to 29%

Q: What about the pest or weed control at 140 g/ha [2, 11] of the same compound?
A: 0 to 29%

Q: And the pest or weed control at 35 g/ha [2, 12]?
A: 0 to 29%

Q: What about the pest or weed control at 70 g/ha [2, 12] of the same compound?
A: 0 to 29%

Q: What about the pest or weed control at 140 g/ha [2, 12] of the same compound?
A: 0 to 29%

Q: What about the pest or weed control at 35 g/ha [2, 13] of the same compound?
A: 0 to 29%

Q: What about the pest or weed control at 70 g/ha [2, 13] of the same compound?
A: 0 to 29%

Q: And the pest or weed control at 140 g/ha [2, 13]?
A: 0 to 29%

Q: What about the pest or weed control at 35 g/ha [2, 14] of the same compound?
A: 0 to 29%

Q: What about the pest or weed control at 70 g/ha [2, 14] of the same compound?
A: 0 to 29%

Q: What about the pest or weed control at 140 g/ha [2, 14] of the same compound?
A: 0 to 29%

Q: What about the melting point of the same compound?
A: 153 °C

Q: Which pest or weed control at 35 g/ha [1, 3] does the source give for Nc1c(Cl)c(C(=O)O)nc(-c2ccc3sccc3c2)c1Cl [Compound 3.02, 4-Amino-6-(benzo[b]thiophen-5-yl)-3,5-dichloropicolinic acid] here?
A: 0 to 29%

Q: And the pest or weed control at 70 g/ha [1, 3]?
A: 0 to 29%

Q: And the pest or weed control at 140 g/ha [1, 3]?
A: 0 to 29%

Q: And the pest or weed control at 35 g/ha [1, 4]?
A: 95 to 100%

Q: What about the pest or weed control at 70 g/ha [1, 4] of the same compound?
A: 95 to 100%

Q: What about the pest or weed control at 140 g/ha [1, 4] of the same compound?
A: 95 to 100%

Q: What about the pest or weed control at 35 g/ha [1, 5] of the same compound?
A: 0 to 29%

Q: What about the pest or weed control at 70 g/ha [1, 5] of the same compound?
A: 0 to 29%

Q: What about the pest or weed control at 140 g/ha [1, 5] of the same compound?
A: 0 to 29%

Q: And the pest or weed control at 35 g/ha [1, 6]?
A: 85 to 94%

Q: And the pest or weed control at 70 g/ha [1, 6]?
A: 85 to 94%

Q: What about the pest or weed control at 140 g/ha [1, 6] of the same compound?
A: 85 to 94%

Q: And the pest or weed control at 35 g/ha [1, 7]?
A: 0 to 29%

Q: What about the pest or weed control at 70 g/ha [1, 7] of the same compound?
A: 0 to 29%

Q: And the pest or weed control at 140 g/ha [1, 7]?
A: 0 to 29%

Q: What about the pest or weed control at 35 g/ha [1, 8] of the same compound?
A: 60 to 74%

Q: What about the pest or weed control at 70 g/ha [1, 8] of the same compound?
A: 75 to 84%

Q: And the pest or weed control at 140 g/ha [1, 8]?
A: 85 to 94%

Q: And the pest or weed control at 35 g/ha [2, 9]?
A: 0 to 29%

Q: What about the pest or weed control at 70 g/ha [2, 9] of the same compound?
A: 0 to 29%

Q: And the pest or weed control at 140 g/ha [2, 9]?
A: 0 to 29%

Q: What about the pest or weed control at 35 g/ha [2, 10] of the same compound?
A: 0 to 29%

Q: And the pest or weed control at 70 g/ha [2, 10]?
A: 0 to 29%

Q: What about the pest or weed control at 140 g/ha [2, 10] of the same compound?
A: 0 to 29%

Q: And the pest or weed control at 35 g/ha [2, 11]?
A: 0 to 29%

Q: And the pest or weed control at 70 g/ha [2, 11]?
A: 0 to 29%

Q: And the pest or weed control at 140 g/ha [2, 11]?
A: 0 to 29%

Q: What about the pest or weed control at 35 g/ha [2, 12] of the same compound?
A: 0 to 29%

Q: And the pest or weed control at 70 g/ha [2, 12]?
A: 0 to 29%

Q: What about the pest or weed control at 140 g/ha [2, 12] of the same compound?
A: 0 to 29%

Q: What about the pest or weed control at 35 g/ha [2, 13] of the same compound?
A: 0 to 29%

Q: What about the pest or weed control at 70 g/ha [2, 13] of the same compound?
A: 0 to 29%

Q: And the pest or weed control at 140 g/ha [2, 13]?
A: 0 to 29%

Q: And the pest or weed control at 35 g/ha [2, 14]?
A: 0 to 29%

Q: What about the pest or weed control at 70 g/ha [2, 14] of the same compound?
A: 60 to 74%

Q: What about the pest or weed control at 140 g/ha [2, 14] of the same compound?
A: 60 to 74%

Q: What about the melting point of the same compound?
A: 157 to 159 °C

Q: Which pest or weed control at 35 g/ha [1, 3] does the source give for COC(=O)c1nc(-c2ccc3ccoc3c2F)nc(N)c1OC [Compound 2.13] here?
A: 95 to 100%

Q: And the pest or weed control at 70 g/ha [1, 3]?
A: 95 to 100%

Q: What about the pest or weed control at 140 g/ha [1, 3] of the same compound?
A: 95 to 100%

Q: What about the pest or weed control at 35 g/ha [1, 4] of the same compound?
A: 60 to 74%

Q: What about the pest or weed control at 70 g/ha [1, 4] of the same compound?
A: 95 to 100%

Q: And the pest or weed control at 140 g/ha [1, 4]?
A: 95 to 100%

Q: And the pest or weed control at 35 g/ha [1, 5]?
A: 95 to 100%

Q: What about the pest or weed control at 70 g/ha [1, 5] of the same compound?
A: 95 to 100%

Q: And the pest or weed control at 140 g/ha [1, 5]?
A: 95 to 100%

Q: And the pest or weed control at 35 g/ha [1, 6]?
A: 95 to 100%

Q: And the pest or weed control at 70 g/ha [1, 6]?
A: 95 to 100%

Q: And the pest or weed control at 140 g/ha [1, 6]?
A: 95 to 100%

Q: And the pest or weed control at 35 g/ha [1, 7]?
A: 95 to 100%

Q: And the pest or weed control at 70 g/ha [1, 7]?
A: 95 to 100%

Q: And the pest or weed control at 140 g/ha [1, 7]?
A: 95 to 100%

Q: What about the pest or weed control at 35 g/ha [1, 8] of the same compound?
A: 75 to 84%

Q: And the pest or weed control at 70 g/ha [1, 8]?
A: 85 to 94%

Q: And the pest or weed control at 140 g/ha [1, 8]?
A: 95 to 100%

Q: What about the pest or weed control at 35 g/ha [2, 9] of the same compound?
A: 30 to 44%

Q: What about the pest or weed control at 70 g/ha [2, 9] of the same compound?
A: 85 to 94%

Q: What about the pest or weed control at 140 g/ha [2, 9] of the same compound?
A: 85 to 94%

Q: What about the pest or weed control at 35 g/ha [2, 10] of the same compound?
A: 75 to 84%

Q: And the pest or weed control at 70 g/ha [2, 10]?
A: 95 to 100%

Q: And the pest or weed control at 140 g/ha [2, 10]?
A: 95 to 100%

Q: And the pest or weed control at 35 g/ha [2, 11]?
A: 0 to 29%

Q: What about the pest or weed control at 70 g/ha [2, 11] of the same compound?
A: 30 to 44%

Q: What about the pest or weed control at 140 g/ha [2, 11] of the same compound?
A: 30 to 44%

Q: And the pest or weed control at 35 g/ha [2, 12]?
A: 0 to 29%

Q: What about the pest or weed control at 70 g/ha [2, 12] of the same compound?
A: 45 to 59%

Q: What about the pest or weed control at 140 g/ha [2, 12] of the same compound?
A: 60 to 74%

Q: What about the pest or weed control at 35 g/ha [2, 13] of the same compound?
A: 0 to 29%

Q: What about the pest or weed control at 70 g/ha [2, 13] of the same compound?
A: 45 to 59%

Q: And the pest or weed control at 140 g/ha [2, 13]?
A: 45 to 59%

Q: What about the pest or weed control at 35 g/ha [2, 14] of the same compound?
A: 0 to 29%

Q: What about the pest or weed control at 70 g/ha [2, 14] of the same compound?
A: 30 to 44%

Q: And the pest or weed control at 140 g/ha [2, 14]?
A: 45 to 59%

Q: What about the melting point of the same compound?
A: 178 °C
